Structures can show the parent of a compound that is named as a salt. Where two headings read alike, the source gives them in different places.
Molecular target: T1, Tau P301L (Homo sapiens, UniProt P10636, P618L)
T1 construct: expressed in transfected cells
Experiment: In vitro tau degradation assay in CHOK1 Tau P301L cells (sarkosyl insoluble tau, WES)
Format: cell-based
Settings: CHO-K1, relative to DMSO doxycycline control, read-out: Tau Protein Degradation effect at 1 μM
In short: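 Sarkosyl-insoluble pellet tau, measured by WES capillary immunoassay (Tau1 antibody), was scored against DMSO doxycycline control as ≤50% or >50% remaining. Cells were CHOK1 clone D1 expressing Tau P301L under doxycycline (1 μg/ml), given 1 μM compound for 48 h with doxycycline withdrawn during the last 24 h.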

[1] = remaining tau protein in sarkosyl insoluble pellet, CHOK1 Tau P301L cells treated 48 hours with test compound at 1 μM, doxycycline removed for the last 24 hours
[2] = CHOK1 Tau P301L cells, remaining tau in sarkosyl insoluble pellet, 48 hours with test compound at 1 μM, doxycycline removed for last 24 hours

T1 sequence (P10636 1-441 isoform P10636-8 P301L): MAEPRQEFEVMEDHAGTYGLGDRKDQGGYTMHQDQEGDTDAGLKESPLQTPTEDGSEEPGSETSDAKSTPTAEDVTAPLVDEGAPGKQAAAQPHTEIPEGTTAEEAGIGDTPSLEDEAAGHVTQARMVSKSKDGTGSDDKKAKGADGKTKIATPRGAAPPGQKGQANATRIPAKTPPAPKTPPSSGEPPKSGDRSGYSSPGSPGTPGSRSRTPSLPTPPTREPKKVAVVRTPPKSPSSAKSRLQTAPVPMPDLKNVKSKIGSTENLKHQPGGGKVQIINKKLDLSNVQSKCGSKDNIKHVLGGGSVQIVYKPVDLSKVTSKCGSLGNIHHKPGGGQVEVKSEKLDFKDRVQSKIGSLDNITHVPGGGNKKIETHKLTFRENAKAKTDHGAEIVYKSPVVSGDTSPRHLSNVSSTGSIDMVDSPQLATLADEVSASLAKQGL

Row | remaining activity at 1 µM [1] [%] | SMILES | remaining activity at 1 µM [2] [%]
1 | > 50 | O=C1CCC(N2C(=O)c3ccc(OCCN4CC5(C4)CN(C[C@H]4C[C@H](OC6CCN(c7ccn8c(n7)nc7ccccc78)CC6)C4)C5)cc3C2=O)C(=O)N1 (stereo partly shown) [Compound 460, 5-(2-(6-(((1r,3r)-3-((1-(benzo[4,5]imidazo[1,2-a]pyrimidin-2-yl)piperidin-4-yl)oxy)cyclobutyl)methyl)-2,6-diazaspiro[3.3]heptan-2-yl)ethoxy)-2-(2,6-dioxopiperidin-3-yl)isoindoline-1,3-dione] | –
2 | < 50 | O=C1CCC(N2C(=O)c3ccc(N4CCN(CC#CC5CCN(c6ccc7c8cnccc8n(C(F)F)c7c6)CC5)CC4)cc3C2=O)C(=O)N1 (stereo not shown) [Compound 565, formate] | –
3 | < 50 | O=C1CCC(N2C(=O)c3ccc(C#CCN4CCN(CCC5CCN(c6ncc(-c7ccc8c9cnccc9n(C(F)F)c8c7)cc6F)CC5)CC4)cc3C2=O)C(=O)N1 (stereo not shown) [Compound 566, 5-(3-(4-(2-(1-(5-(5-(difluoromethyl)-5H-pyrido[4,3-b]indol-7-yl)-3-fluoropyridin-2-yl)piperidin-4-yl)ethyl)piperazin-1-yl)prop-1-yn-1-yl)-2-(2,6-dioxopiperidin-3-yl)isoindoline-1,3-dione] | –
4 | > 50 | Cn1c2ccncc2c2ccc(-c3ccc(N4CCC(CN5CCN(c6ccc7c(c6)C(=O)N(C6CCC(=O)NC6=O)C7=O)CC5)CC4)nc3)cc21 (stereo not shown) [Compound 390, 2-(2,6-dioxopiperidin-3-yl)-5-(4-[[1-(5-[5-methyl-5H-pyrido[4,3-b]indol-7-yl]pyridin-2-yl)piperidin-4-yl]methyl]piperazin-1-yl)-2,3-dihydro-1H-isoindole-1,3-dione] | –
5 | < 50 | O=C1CCC(N2C(=O)c3ccc(N4CCN(CCC5CCN(C6CCN(c7ccc8c9cnccc9n(C(F)F)c8c7)CC6)CC5)CC4)cc3C2=O)C(=O)N1 (stereo not shown) [Compound 593] | –
6 | < 50 | O=C1CCC(N2C(=O)c3cccc(N4CCN(CCC5CCN(c6ncc(-c7ccc8c9cnccc9n(C(F)F)c8c7)cc6F)CC5)CC4)c3C2=O)C(=O)N1 (stereo not shown) [Compound 594, 4-(4-(2-(1-(5-(5-(difluoromethyl)-5H-pyrido[4,3-b]indol-7-yl)-3-fluoropyridin-2-yl)piperidin-4-yl)ethyl)piperazin-1-yl)-2-(2,6-dioxopiperidin-3-yl)isoindoline-1,3-dione] | –
7 | < 50 | N#Cc1cc(-c2ccc3c4cnccc4n(C(F)F)c3c2)cnc1N1CCC(CCN2CCN(c3ccc4c(c3)C(=O)N(C3CCC(=O)NC3=O)C4=O)CC2)CC1 (stereo not shown) [Compound 454, 5-(5-(difluoromethyl)-5H-pyrido[4,3-b]indol-7-yl)-2-(4-(2-(4-(2-(2,6-dioxopiperidin-3-yl)-1,3-dioxoisoindolin-5-yl)piperazin-1-yl)ethyl)piperidin-1-yl)nicotinonitrile] | –
8 | < 50 | Cc1cnc(Nc2ccc3cnccc3c2)cc1OCCOCCOCCOCCOc1ccc2c(c1)C(=O)N(C1CCC(=O)NC1=O)C2=O (stereo not shown) [Compound 369, 2-(2,6-dioxopiperidin-3-yl)-5-(2-(2-(2-(2-((2-(isoquinolin-6-ylamino)-5-methylpyridin-4-yl)oxy)ethoxy)ethoxy)ethoxy)ethoxy) isoindoline-1,3-dione] | –
9 | < 50 | O=C1CCC(N2C(=O)c3ccc(N4CCN(CC(F)(F)C5CCN(c6ccc(-c7ccc8c(c7)[nH]c7ccncc78)cn6)CC5)CC4)cc3C2=O)C(=O)N1 (stereo not shown) [Compound 569, 5-(4-(2-(1-(5-(5H-pyrido[4,3-b]indol-7-yl)pyridin-2-yl)piperidin-4-yl)-2,2-difluoroethyl)piperazin-1-yl)-2-(2,6-dioxopiperidin-3-yl)isoindoline-1,3-dione] | –
10 | > 50 | Cc1ncsc1-c1ccc([C@H](C)NC(=O)[C@@H]2C[C@@H](O)CN2C(=O)C(c2cc(OCCOCCOCCOc3ccc(-c4ccc5c(c4)[nH]c4ccncc45)cn3)no2)C(C)C)cc1 (stereo in doubt) [Compound 395, (2S,4R)-1-((S)-2-(3-(2-(2-(2-((5-(5H-pyrido[4,3-b]indol-7-yl)pyridin-2-yl)oxy)ethoxy)ethoxy)ethoxy)isoxazol-5-yl)-3-methylbutanoyl)-4-hydroxy-N-((S)-1-(4-(4-methylthiazol-5-yl)phenyl)ethyl) pyrrolidine-2-carboxamide] | –
11 | – | CN1CCc2c([nH]c3cc(-c4cnc(N5CCC(CCN6CCN(c7ccc8c(c7)C(=O)N(C7CCC(=O)NC7=O)C8=O)CC6)CC5)c(F)c4)ccc23)C1 (stereo not shown) [Compound 634, 2-(2,6-dioxopiperidin-3-yl)-5-(4-(2-(1-(3-fluoro-5-(2-methyl-2,3,4,9-tetrahydro-1H-pyrido[3,4-b]indol-7-yl)pyridin-2-yl)piperidin-4-yl)ethyl)piperazin-1-yl)isoindoline-1,3-dione] | < 50
12 | < 50 | O=C1CCC(N2C(=O)c3ccc(N4CCN(CCC5CCN(c6ccc(-c7ccc8c(c7)[nH]c7ccncc78)cn6)CC5)CC4)cc3C2=O)C(=O)N1 (stereo not shown) [Compound 400, 2-(2,6-dioxopiperidin-3-yl)-5-(4-[2-[1-(5-[5H-pyrido[4,3-b]indol-7-yl]pyridin-2-yl)piperidin-4-yl]ethyl]piperazin-1-yl)isoindole-1,3-dione] | –
13 | < 50 | Cc1cnc(Nc2ccc3cnccc3c2)cc1N1CCC(CCN2CCN(c3ccc4c(c3)C(=O)N(C3CCC(=O)NC3=O)C4=O)CC2)CC1 (stereo not shown) [Compound 447, 2-(2,6-dioxopiperidin-3-yl)-5-(4-(2-(1-(2-(isoquinolin-6-ylamino)-5-methylpyridin-4-yl)piperidin-4-yl)ethyl)piperazin-1-yl)isoindoline-1,3-dione] | –
14 | – | CN1CCc2[nH]c3cc(-c4cnc(N5CCC(CCN6CCN(c7cc8c(cc7F)C(=O)N(C7CCC(=O)NC7=O)C8=O)CC6)CC5)c(F)c4)ccc3c2C1 (stereo not shown) [Compound 647, 2-(2,6-dioxopiperidin-3-yl)-5-fluoro-6-(4-(2-(1-(3-fluoro-5-(2-methyl-2,3,4,5-tetrahydro-1H-pyrido[4,3-b]indol-7-yl)pyridin-2-yl)piperidin-4-yl)ethyl)piperazin-1-yl)isoindoline-1,3-dione] | > 50

Row | SMILES | remaining activity at 1 µM [1] [%] | remaining activity at 1 µM [2] [%]
15 | Cc1ncsc1-c1ccc([C@H](C)NC(=O)[C@@H]2C[C@@H](O)CN2C(=O)[C@@H](c2cc(OCCCCCN3CCC(O[C@H]4C[C@H](Oc5ccc(-c6ccc7c8cnccc8n(C)c7c6)cn5)C4)CC3)no2)C(C)C)cc1 [Compound 379, (2S,4R)-4-hydroxy-1-((R)-3-methyl-2-(3-((5-(4-((1r,3r)-3-((5-(5-methyl-5H-pyrido[4,3-b]indol-7-yl)pyridin-2-yl)oxy)cyclobutoxy)piperidin-1-yl)pentyl)oxy)isoxazol-5-yl)butanoyl)-N-((S)-1-(4-(4-methylthiazol-5-yl)phenyl)ethyl) pyrrolidine-2-carboxamide] | > 50 | –
16 | Cc1ncsc1-c1ccc([C@H](C)NC(=O)[C@@H]2C[C@@H](O)CN2C(=O)[C@H](c2cc(OCCN3CCC(O[C@H]4C[C@H](Oc5ccc(-c6ccc7c8cnccc8n(C)c7c6)cn5)C4)CC3)no2)C(C)C)cc1 [Compound 399, (2S,4R)-4-hydroxy-1-((S)-3-methyl-2-(3-(2-(4-((1r,3S)-3-((5-(5-methyl-5H-pyrido[4,3-b]indol-7-yl)pyridin-2-yl)oxy)cyclobutoxy)piperidin-1-yl)ethoxy)isoxazol-5-yl)butanoyl)-N-((S)-1-(4-(4-methylthiazol-5-yl)phenyl)ethyl) pyrrolidine-2-carboxamide] | > 50 | –

From patent US11912699B2, “Tau-protein targeting compounds and associated” (Arvinas Operations, Inc., priority 2019, dated 2024)
